Experimental data reported in paper PMC8986850, “Development and exploration of novel substituted thiosemicarbazones as inhibitors of aldose reductase via in vitro analysis and computational study” (Scientific Reports, 2022).

Columns and labels:
human AKR1B1 (hAKR1B1) = molecular target: T1, human AKR1B1 (hAKR1B1) (Homo sapiens, UniProt P15121); experiment: Inhibition of expressed human AKR1B1 (E. coli BL21 (DE3)); format: biochemical; details: human AKR1B1 expressed in E. coli BL21 (DE3), mean ± SEM of three measurements
T1 construct: made in house; host or cells: E. coli BL21 (DE3)
Method: For the enzyme inhibition assay, ALR2 and ALR1 were extracted from bovine sources (ALR2 from eyes and ALR1 from kidneys). Moreover, inhibitions studies were also carried out on the expressed ALR2 (human AKR1B1) and inhibition data for ALR2- bovine source and expressed enzyme was compared and analyzed. The protocols for enzyme extraction and expression in the bacterial system are included in the section of “Supporting information”. […] For the purpose of comparison and validation of enzyme inhibition data, these compounds were tested against human AKR1B1 (hAKR1B1) expressed in E. coli BL21 (DE3).
For the determination of enzyme activity of ALR1 and ALR2, 100 µL of reaction mixture was composed of 20 µL of buffer (100 mM sodium phosphate, pH 6.2), 30 µL of enzyme extract, 20 µL of substrate (10 mM), 20 µL of cofactor (0.1 mM of NADPH) and 10 µL of test compound (1 mM)[6],[21]. […] Similar protocols were followed for ALR1 and ALR2, however the substrate was different for each enzyme, with sodium-D-glucoronate and DL-glyceraldehyde used as the substrates for the ALR1 and ALR2 assays, respectively. […] In addition, similar protocols were adopted for human AKR1B1 that was expressed in E. coli BL21 (DE3), though the determined protein concentration was 12 µg/mL for the expressed enzyme. Detailed protocols for the preparation of ALR1, ALR2 and expressed human AKR1B1 can be found in the supporting information.
The newly synthesized N-substitute thiosemicarbazones (3a-o) were dissolved in 100% DMSO and diluted with deionized water, keeping the DMSO concentration equal to 0.1% in the assay.
The expression plasmid for aldose reductase (pDONR223_AKR1B1_WT) was gift from Addgene in stable culture. Streaking of this culture has been carried out on LB Agar plate then incubated overnight, after growth of colonies , inoculation was performed in LB medium then incubated this medium in shaking incubator at 37 °C. After 48 hours turbidity was measured when OD=0.6 then some of bacterial growth was prepared as 50% glycerol stock. Others are subjected to plasmid isolation following method Miniprep. Meanwhile E. Coli BL21 De3 cells were made competent then transformation with extracted plasmid (AKR1B1) had been carried out heat shock method. Transformed cell ( E.Coli BL21 DE3+AKR1B1) were grown in 37 °C in shaking incubator for 48 hr. The selection for transformed cells was carried out with the help of antibiotic (spectinomycin 50µg/ml). […] For the expression of aldose reductase , E.coli BL21DE3 were induced with of IPTG(Isopropyl-d-thiogalactopyranoside)[3]. […] The expressed enzyme was stabilized by addition 10 mM Tris–HCl buffer, 0.5 mM EDTA, 5 mM β-marcaptoethanol at pH 8.0 and 20% (v/v) glycerol. Cells were lysed with lysis buffer and then precipitation with ammonium sulfate up to 80% saturation was done . the expressed enzyme was dialyzed overnight against tris buffer. Protein quantification was performed following Bradford protein assay. Aliqoutes were stored at -80 refrigerator.

[1] = DPPH radical scavenging activity; details: 100 µM compound, methanolic DPPH 0.025 mg/mL, 517 nm
Method: DPPH (2,2-diphenyl-1-picrylhydrazyl) was used to explore the free radical quenching ability of 3a-o so as to provide a gauge of their antioxidant potential. The experiment was conducted according to a previously reported protocol with slight modifications. Percent free radical scavenging activities (% FRSA) of 3a-o were determined by spectrophotometric analysis at 517 nm using a homogenous mixture of methanolic DPPH (0.025 mg/mL) and a 100 µM solution of the tested compound, with ascorbic acid used as a positive control (Fig. 3).

With CC(C)(C)c1cc(C=NNC(=S)Nc2ccccc2F)c(O)c(C(C)(C)C)c1 [Compound 3m, 2-(3,5-di-tert-butyl-2-hydroxybenzylidene)-N-(2-fluorophenyl)hydrazine carbothioamide] as the molecule, how does the IC50 (human AKR1B1 (hAKR1B1)) read?
Its IC50 is 1.36 ± 0.004 µM.

And the “% FRSA (percent free radical scavenging activity)” value [1]?
Its value is 75.95%.
